# System: bacteria and fungi
# Assay: not given
# Conditions: surface drug concentration is to exceed this value; cited from earlier work
row,Structure (SMILES),concentration known to be lethal to bacteria and fungi
1,"O=c1[nH]cc(F)c(=O)[nH]1 [5-fluorouracil, 5-Fluorouracil]",10^−4 M
2,"COc1cc([C@@H]2c3cc4c(cc3[C@@H](O[C@@H]3O[C@@H]5CO[C@@H](C)O[C@H]5[C@H](O)[C@H]3O)[C@H]3COC(=O)[C@H]23)OCO4)cc(OC)c1O [etoposide, Etoposide]",10^−5 M
3,O=C1c2c(O)ccc(O)c2C(=O)c2c(NCCNCCO)ccc(NCCNCCO)c21 [mitoxantrone],10^−5 M
4,"COc1cccc2c1C(=O)c1c(O)c3c(c(O)c1C2=O)C[C@@](O)(C(=O)CO)C[C@@H]3O[C@H]1C[C@H](N)[C@H](O)[C@H](C)O1 [doxorubicin, Doxorubicin]",10^−4 M

# System: AP-1
# Assay: IL-1 induced AP-1 binding activity in chondrocyte lysates (FIG. 4C)
# Assay type: cell-based
# Conditions: chondrocytes pretreated with paclitaxel
row,Structure (SMILES),IL-1 induced binding activity in lysates from chondrocytes
1,CC(=O)O[C@H]1C(=O)[C@@]2(C)[C@H]([C@H](OC(=O)c3ccccc3)[C@]3(O)C[C@H](OC(=O)[C@H](O)[C@@H](NC(=O)c4ccccc4)c4ccccc4)C(C)=C1C3(C)C)[C@]1(OC(C)=O)CO[C@@H]1C[C@@H]2O [paclitaxel],decreased

# System: collagenase and stromelysin
# Assay: IL-1 induced collagenase and stromelysin expression in chondrocytes (FIGS. 4D, 5A-H)
# Assay type: cell-based
# Conditions: pretreatment with paclitaxel; FIG. 4D
row,Structure (SMILES),IL-1 induction of collagenase and stromelysin RNA levels in chondrocytes
1,CC(=O)O[C@H]1C(=O)[C@@]2(C)[C@H]([C@H](OC(=O)c3ccccc3)[C@]3(O)C[C@H](OC(=O)[C@H](O)[C@@H](NC(=O)c4ccccc4)c4ccccc4)C(C)=C1C3(C)C)[C@]1(OC(C)=O)CO[C@@H]1C[C@@H]2O [paclitaxel],inhibited

# System: fibroblasts and/or smooth muscle cells, macrophages
# Assay: assays described herein (in vitro screening assays for anti-fibrosis agents)
# Assay type: cell-based
# Conditions: approximately; high potency (1-100) or mid-potency (100-500) agents; read-out: IC50 range in the assays described herein
# Source text: Agents which may inhibit fibrosis or gliosis may be readily identified based upon in vitro and in vivo (animal) models, such as those provided in Examples 39-52. Depending on their mechanisms, various agents may be effective in some, but not all screening assays for anti-fibrosis or anti-gliosis agents, and different agents may be effective in different screening assays. Agents which inhibit fibrosis can be identified through in vivo models including inhibition of intimal hyperplasia development in the rat balloon carotid artery model (Examples 44 and 61). The assays set forth in Examples 43 and 51 may be used to determine whether an agent is able to inhibit cell proliferation in fibroblasts and/or smooth muscle cells. In one aspect of the invention, the agent has an IC50 for inhibition of cell proliferation within a range of about 10^−6 to about 10^−10 M. In certain embodiments, the agent may have an IC50 for inhibition of cell proliferation of less than about 10,000 nM; or less than about 1000 nM; or less than about 100 nM. The assay set forth in Example 47 may be used to determine whether an agent may inhibit migration of fibroblasts and/or smooth muscle cells. In one aspect of the invention, the agent has an IC50 for inhibition of cell migration within a range of about 10^−6 to about 10^−9M. In certain embodiments, the agent may have an IC50 for inhibition of fibroblast or smooth muscle cell migration of less than about 10,000 nM; or less than about 1000 nM; or less than about 100 nM. Assays set forth herein may be used to determine whether an agent is able to inhibit inflammatory processes, including nitric oxide production in macrophages (Example 39), and/or TNF-alpha production by macrophages (Example 40), and/or IL-1 beta production by macrophages (Example 48), and/or IL-8 production by macrophages (Example 49), and/or inhibition of MCP-1 by macrophages (Example 50). In one aspect of the invention, the agent has an IC50 for inhibition of any one of these inflammatory processes within a range of about 10^−6 to about 10^−10M. In certain embodiments, the agent may have an IC50 for any one of these inflammatory processes of less than about 10,000 nM; or less than about 1000 nM; or less than about 100 nM. The assay set forth in Example 45 may be used to determine whether an agent is able to inhibit MMP production. In one aspect of the invention, the agent has an IC50 for inhibition of MMP production within a range of about 10^−4 to about 10^−8M. In certain embodiments, the agent may have an IC50 for inhibition of MMP production of less than about 10,000 nM; or less than about 1000 nM; or less than about 100 nM. The assay set forth in Example 46 (also known as the CAM assay) may be used to determine whether an agent is able to inhibit angiogenesis. In one aspect of the invention, the agent has an IC50 for inhibition of angiogenesis within a range of about 10^−6 to about 10^−10M. In certain embodiments, the agent may have an IC50 for inhibition of angiogenesis of less than about 10,000 nM; or less than about 1000 nM; or less than about 100 nM. The assay set forth in Example 52 may be used to determine whether an agent is able to inhibit MMP-1. In one aspect of the invention, the agent has an IC50 for inhibition of MMP-1 within a range of about 10^−6 to about 10^−10M. In certain embodiments, the agent may have an IC50 for inhibition of MMP-1 of less than about 10,000 nM; or less than about 1000 nM; or less than about 100 nM. Agents which reduce the formation of surgical adhesions may be identified through in vivo models including the rabbit surgical adhesions model (Example 42) and the rat caecal sidewall model (Example 41). […]
row,Structure (SMILES),IC50 [nM]
1,O=C1C=CC(=O)c2c(O)cccc21 [juglone],100 to 500
2,CCC(=O)O[C@]1(C(=O)CCl)[C@@H](C)C[C@H]2[C@@H]3CCC4=CC(=O)C=C[C@]4(C)[C@@]3(F)[C@@H](O)C[C@@]21C [clobetasol propionate],1 to 100
3,Cc1ccc(=O)n(-c2ccccc2)c1 [pirfenidone],1 to 100
4,C[C@]12C=CC(=O)C=C1CC[C@@H]1[C@@H]2[C@@H](O)C[C@@]2(C)[C@H]1CC[C@]2(O)C(=O)CO [prednisolone],100 to 500
5,CCOC(=O)O[C@]1(C(=O)OCCl)CC[C@H]2[C@@H]3CCC4=CC(=O)C=C[C@]4(C)[C@H]3[C@@H](O)C[C@@]21C [loteprednol etabonate],100 to 500
6,COC(=O)C[C@](O)(CCCC(C)(C)O)C(=O)O[C@@H]1C(OC)=C[C@]23CCCN2CCc2cc4c(cc2[C@H]13)OCO4 [homoharringtonine],1 to 100
7,C/C=C(/C)C(=O)O[C@H]1C(C)=C2[C@H]([C@@H]1OC(=O)CCCCCCC)[C@@](C)(OC(C)=O)C[C@H](OC(=O)CCC)[C@@]1(O)[C@H]2OC(=O)[C@@]1(C)O [thapsigargin],1 to 100
8,CCC1=C[C@@H]2CN(C1)Cc1c([nH]c3ccccc13)[C@@](C(=O)OC)(c1cc3c(cc1OC)N(C)[C@H]1[C@@](O)(C(=O)OC)[C@H](OC(C)=O)[C@]4(CC)C=CCN5CC[C@]31[C@@H]54)C2 [vinorelbine],1 to 100
9,Nc1nc(Cl)nc2c1ncn2[C@H]1C[C@H](O)[C@@H](CO)O1 [cladribine],100 to 500
10,C=CC[C@@H]1/C=C(\C)C[C@H](C)C[C@H](OC)[C@H]2O[C@@](O)(C(=O)C(=O)N3CCCC[C@H]3C(=O)O[C@H](/C(C)=C/[C@@H]3CC[C@@H](O)[C@H](OC)C3)[C@H](C)[C@@H](O)CC1=O)[C@H](C)C[C@@H]2OC [tacrolimus],1 to 100
11,COc1ccc(C[C@H](N)C(=O)N[C@H]2[C@@H](O)[C@H](n3cnc4c(N(C)C)ncnc43)O[C@@H]2CO)cc1 [puromycin],100 to 500
12,O=C[C@@H](O)[C@@H](O)[C@H](O)[C@H](O)COP(=O)(O)O [mannose-6-phosphate],100 to 500
13,C[C@@H]1C[C@H]2O[C@@H]2/C=C\C=C\C(=O)Cc2c(Cl)c(O)cc(O)c2C(=O)O1 [radicicol],1 to 100
14,COCc1c(C(C)C)nc(C(C)C)c(/C=C/[C@@H](O)C[C@@H](O)CC(=O)O)c1-c1ccc(F)cc1 [cerivastatin],1 to 100
15,CC1=C(/C=C/C(C)=C/C=C/C(C)=C\C(=O)O)C(C)(C)CCC1 [isotretinoin],1 to 100

# Same assay, conditions: approximately; low potency agents; read-out: IC50 range in the assays described herein
row,Structure (SMILES),IC50 [nM]
1,"CN(C)C[C@@H]1CCn2cc(c3ccccc32)C2=C(C(=O)NC2=O)c2cn(c3ccccc23)CCO1 [Ly333531 (ruboxistaurin), ruboxistaurin]",500 to 1000
2,Nc1ncn([C@@H]2O[C@H](CO)[C@@H](O)[C@H]2O)c(=O)n1 [5-azacytidine],500 to 1000
3,CCC(C)(C)C(=O)O[C@H]1C[C@@H](C)C=C2C=C[C@H](C)[C@H](CC[C@@H]3C[C@@H](O)CC(=O)O3)[C@H]21 [simvastatin],500 to 1000

# Reference: patent publication US20090280153A1, “electrical devices, anti-scarring agents, and therapeutic compositions” (Angiotech International AG, priority 2005, published 2009)
